How the values were obtained:
[1] = patients having progressive disease before treatment; cited from earlier work
bEnd.3 cells = test: Detection of PS on cultured endothelial cells by 125I-labeled annexin V; assay type: cell-based, mouse; conditions: for 125I-Annexin V (% of Max binding), bEnd.3 cells: 24 h, concentration as listed per treatment
Method: (§1) All reagents were diluted in medium containing 10% serum and incubated with the cells at 37° C. for 24 h.
(§2) To study the effect of hypoxia, cells were seeded on 24 well plates and were incubated in a humidified normoxic atmosphere (21% O2. 5% CO2) for 48 h before being transferred to a humidified hypoxic atmosphere (1% O2, 5% CO2, 94% N2) in a sealed chamber (Billups Rothenberg Inc., Del Mar, Calif.). Cells were incubated in a hypoxic chamber for 24 h at 37° C. and were then returned to a normoxic environment for 4 h at 37° C. The cells were compared to a parallel culture from an identical passage, seeded on the same day and maintained entirely under normoxic conditions. In some studies, IL-1α (10 ng/ml) and TNFα (20 ng/ml) were added to the medium before transfer to the hypoxic chamber.
(§3) After treatment with the reagents described above, treated and control cells were incubated with 7.1 pmoles of ^125I-labeled annexin V (200 μl/well) in the binding buffer. After 2 h incubation at room temperature, cells were washed extensively and dissolved in 0.5 M of NaOH. The entire volume of 0.5 ml was transferred to plastic tubes and counted in a gamma counter. Non-specific binding was determined in the presence of 5 mM EDTA and was subtracted from experimental values. The results were expressed as net pmoles of cell-bound annexin V, normalized per 1×10^6 cells.
(§4) Maximal binding of annexin V was determined on cells simultaneously treated with actinomycin D and TNFα (50 ng/ml of each component). As has been previously reported, these agents cause apoptosis and PS exposure in 90-100% of endothelial cells (Lucas et al., 1998). Basal binding of ^125I-annexin V to untreated cells was determined in the presence of medium with 10% serum. The amount of ^125I-annexin V that bound to the untreated cultures was subtracted from that in the treated cultures. Exposure of PS was calculated according to the following formula: cell-bound annexin V (pmoles) under experimental conditions divided by maximal annexin V binding (pmoles), multiplied by 100. Each study was performed in duplicate and was performed at least three times. Mean values were calculated. The SE of the mean values from three separate experiments was less than 5%.

ABAE cells = test: as above; assay type: cell-based, bovine; conditions: for 125I-Annexin V (% of Max binding), ABAE cells: 24 h, concentration as listed per treatment; for anionic phospholipid-exposure (% of the maximum): ABAE cells, hypoxia/reoxygenation in the presence of sub-toxic cytokine
Method: as §1, §2, §3, §4

bEnd.3 endothelial cells = test: Induction of PS by H2O2: anti-PS IgM staining and Trypan Blue exclusion
HUVEC and HMVEC = test: Induction of PS exposure on endothelial cells by docetaxel (FACS, 3G4 binding); assay type: cell-based, human; conditions: 10 nM, 24 hrs
Method: (§5) FIG. 24A and FIG. 24B. Induction of PS exposure on endothelial cells by docetaxel. Human umbilical vein endothelial cells (HUVEC) and human microvessel endothelial cells (HMVEC) were treated with 10 nM of docetaxel for 24 hrs. […] The cells were then washed twice, FITC labeled goat anti-mouse IgG was added and the cells incubated for a further 30 mins. on ice. The cells were then washed and analyzed by FACS using a FACSCalibur cytometer (Becton-Dickinson, San Jose, Calif.) with CellQuest acquisition software.
(§6) The induction of PS exposure on endothelial cells by subclinical concentrations of docetaxel was examined in vitro by FACS analysis. Human umbilical vein endothelial cells (HUVEC) and human microvessel endothelial cells (HMVEC) were treated with 10 nM of docetaxel for 24 hrs and examined by FACS. […] Docetaxel incubations for 48 and 72 hrs were also conducted.

[2] = tested on: human breast cancer MDA-MB-435 cells; test: PS exposure on tumor cells by FACS (3G4 binding), MDA-MB-435; assay type: cell-based; conditions: 10 nM docetaxel, 24 hrs, compared with untreated cells
Method: (§7) The in vitro induction of PS exposure by subclinical concentrations of docetaxel was also examined by FACS analysis using a panel of tumor cell lines. Mouse lewis lung carcinoma 3 LL, mouse colon carcinoma Colo26 and human breast cancer MDA-MB-435 cells were treated with 10 nM of docetaxel for 24 hrs and examined by FACS. […] Docetaxel incubations for 48 and 72 hrs were also conducted.

[3] = tested on: human microvessel endothelial cells (HMVEC); test: PS exposure on endothelial cells by FACS (3G4 binding), HMVEC; assay type: cell-based; conditions: 10 nM docetaxel, 24 hrs, compared to untreated cells
Method: as §6

[4] = breast cancer patients; cited from earlier work
Mouse melanoma B16 = test: PS exposure on tumor cells by FACS (3G4 binding), B16; assay type: cell-based; conditions: docetaxel, compared with untreated cells
[5] = tested on: mouse colon carcinoma Colo26; test: PS exposure on tumor cells by FACS (3G4 binding), Colo26; assay type: cell-based; conditions: 10 nM docetaxel, 24 hrs, compared with untreated cells
Method: as §7

[6] = tested on: mouse firbrosarcoma Meth A; test: PS exposure on tumor cells by FACS (3G4 binding), Meth A; assay type: cell-based; conditions: docetaxel, compared with untreated cells
tumor cell lines = test: Induction of PS exposure on tumor cell lines by docetaxel (FACS); assay type: cell-based; conditions: 10 nM, 24 hrs
Method: as §5, with “25A, FIG. 25B” for “24A”, “25C.” for “24B.”, “tumor cell lines” for “endothelial cells”, “Mouse lewis lung carcinoma 3LL, mouse colon carcinoma Colo26” for “Human umbilical vein endothelial cells (HUVEC)”, “breast cancer MDA-MB-435” for “microvessel endothelial”, “cells” for “cells (HMVEC)”
FIG. 26. Induction of PS exposure on human breast cancer MDA-MB-231 cells by docetaxel. Human breast cancer MDA-MB-231 cells were treated with 10 nM of docetaxel for 24 hrs. […] The cells were then washed twice, FITC labeled anti-IgG was added and the cells analyzed by FACS, as above. There is a significant increase in ch3G4 binding as compared to control, human IgG.
as §7

[7] = tested on: human umbilical vein endothelial cells (HUVEC); test: PS exposure on endothelial cells by FACS (3G4 binding), HUVEC; assay type: cell-based; conditions: 10 nM docetaxel, 24 hrs, compared to untreated cells
Method: as §6

[8] = tested on: Mouse lewis lung carcinoma 3 LL; test: PS exposure on tumor cells by FACS (3G4 binding), 3LL; assay type: cell-based; conditions: 3 LL cells, 10 nM docetaxel, 24 hrs, compared with untreated cells
Method: as §7

| Molecule | 125I-Annexin V (% of Max binding), bEnd.3 cells (bEnd.3 cells) | 125I-Annexin V (% of Max binding), ABAE cells (ABAE cells) | further results |
| --- | --- | --- | --- |
| NC(=O)c1nnn(Cc2cc(Cl)c(C(=O)c3ccc(Cl)cc3)c(Cl)c2)c1N [CAI, carboxyamidotriazole] |  |  | cancer patients with disease stabilization [1]: 49% |
| OO [Hydrogen peroxide, hydrogen peroxide] | 98.4% | 95.5% | cells with translocation of anionic phospholipids to the external surface (125I-labeled annexin V) (bEnd.3 cells; 200 μM for 2 h): 70-90%; externalization of PS by 125I-annexin V binding (ABAE cells; 100 to 200 μM, both cell types): 95%; cells that bound biotinylated annexin V (immunohistochemically) (ABAE cells; ABAE and bEnd.3 cells, 100 to 200 μM): More than 70%; cells with PS detected at the cell surface (bEnd.3 endothelial cells; concentrations as low as 20 μM): about 50%; cell viability (bEnd.3 endothelial cells; high concentrations, 1 hour): 50-60%; cells with PS translocation (bEnd.3 endothelial cells; high concentrations, 1 hour): ~90%; cell viability (bEnd.3 endothelial cells; low levels of H2O2, identical to untreated cells): 95% |
| CC(=O)O[C@@]12CO[C@@H]1C[C@H](O)[C@@]1(C)C(=O)[C@H](O)C3=C(C)[C@@H](OC(=O)[C@H](O)[C@@H](NC(=O)OC(C)(C)C)c4ccccc4)C[C@@](O)([C@@H](OC(=O)c4ccccc4)[C@H]21)C3(C)C [docetaxel] |  |  | 3G4 binding vs. untreated cells (HUVEC and HMVEC; HMVEC): significant increase in 3G4 binding; 3G4 binding vs. untreated cells (HUVEC and HMVEC; HUVEC): significant increase in 3G4 binding; 3G4 binding by FACS (PS exposure) [2]: significant increase in 3G4 binding; 3G4 binding by FACS (PS exposure) [3]: significant increase in 3G4 binding; serum cytokine levels and NK/LAK cell activity [4]: increase in serum IFN-γ, IL-2, IL-6 and GM-CSF cytokine levels and enhancement of NK and LAK cell activity; 3G4 binding by FACS (PS exposure) (Mouse melanoma B16): significant increase in 3G4 binding; 3G4 binding by FACS (PS exposure) [5]: significant increase in 3G4 binding; 3G4 binding by FACS (PS exposure) [6]: significant increase in 3G4 binding; 3G4 binding vs. untreated cells (tumor cell lines; 3LL, Colo26, MDA-MB-435 cells): significant increase in 3G4 binding; antibody (ch3G4) binding to treated cells (tumor cell lines; MDA-MB-231, vs. human IgG): significant increase in antibody binding; 3G4 binding by FACS (PS exposure) [7]: significant increase in 3G4 binding; 3G4 binding by FACS (PS exposure) [8]: significant increase in 3G4 binding |
| FGF-2: human fibroblast growth factor-2 | 0% | 0% |  |
| Hypoxia + IL-1α: IL-1α (10 ng/ml) under hypoxia/reoxygenation | 31.0% | 26.0% |  |
| IL-6: interleukin-6 | 0% | 0% |  |
| IL-8: interleukin-8 | 0% | 0% |  |
| IL-10: interleukin-10 | 0% | 0% |  |
| Interferon | 2.8% | 8.6% |  |
| Scatter factor: recombinant hepatocyte growth factor (HGF or scatter factor) | 0% | 0% |  |
| TGF β1: growth factor | 0% | 0% |  |
| TNFα | 13.7% | 7.4% | anionic phospholipid-exposure (% of the maximum) (ABAE cells): 33% |
| Thrombin | 17.4% | 8.8% |  |
| VEGF | 0% | 0% |  |
| IL-1β: recombinant murine interleukin-1 beta (protein, UniProt P10749 118-269, looked up) Interleukin-1 beta: VPIRQLHYRLRDEQQKSLVLSDPYELKALHLNGQNINQQVIFSMSFVQGEPSNDKIPVALGLKGKNLYLSCVMKDGTPTLQLESVDPKQYPKKKMEKRFVFNKIEVKSKVEFESAEFPNWYISTSQAEHKPVFLGNNSGQDIIDFTMESVSS | 5.5% | 5.8% |  |
| IL-1α: recombinant murine interleukin-1 alpha (protein, UniProt P01582 115-270, looked up) Interleukin-1 alpha: SAPYTYQSDLRYKLMKLVRQKFVMNDSLNQTIYQDVDKHYLSTTWLNDLQQEVKFDMYAYSSGGDDSKYPVTLKISDSQLFVSAQGEDQPVLLKELPETPKLITGSETDLIFFWKSINSKNYFTSAAYPELFIATKEQSRVHLARGLPSMTDFQIS | 7.5% | 6.4% | anionic phospholipid-exposure (% of the maximum) (ABAE cells): 26% |

Source: US7678386B2, “Liposomes coated with selected antibodies that bind to aminophospholipids” (Board of Regents the University of Texas, priority 2002, dated 2010)
